{
  "source": "paper PMC3005334",
  "about": "(Cell, 2010)",
  "key": {"Hmg1": {"target": "T1, Hmg1 (Saccharomyces cerevisiae, UniProt P12683)", "T1 sequence (P12683 1-1054)": "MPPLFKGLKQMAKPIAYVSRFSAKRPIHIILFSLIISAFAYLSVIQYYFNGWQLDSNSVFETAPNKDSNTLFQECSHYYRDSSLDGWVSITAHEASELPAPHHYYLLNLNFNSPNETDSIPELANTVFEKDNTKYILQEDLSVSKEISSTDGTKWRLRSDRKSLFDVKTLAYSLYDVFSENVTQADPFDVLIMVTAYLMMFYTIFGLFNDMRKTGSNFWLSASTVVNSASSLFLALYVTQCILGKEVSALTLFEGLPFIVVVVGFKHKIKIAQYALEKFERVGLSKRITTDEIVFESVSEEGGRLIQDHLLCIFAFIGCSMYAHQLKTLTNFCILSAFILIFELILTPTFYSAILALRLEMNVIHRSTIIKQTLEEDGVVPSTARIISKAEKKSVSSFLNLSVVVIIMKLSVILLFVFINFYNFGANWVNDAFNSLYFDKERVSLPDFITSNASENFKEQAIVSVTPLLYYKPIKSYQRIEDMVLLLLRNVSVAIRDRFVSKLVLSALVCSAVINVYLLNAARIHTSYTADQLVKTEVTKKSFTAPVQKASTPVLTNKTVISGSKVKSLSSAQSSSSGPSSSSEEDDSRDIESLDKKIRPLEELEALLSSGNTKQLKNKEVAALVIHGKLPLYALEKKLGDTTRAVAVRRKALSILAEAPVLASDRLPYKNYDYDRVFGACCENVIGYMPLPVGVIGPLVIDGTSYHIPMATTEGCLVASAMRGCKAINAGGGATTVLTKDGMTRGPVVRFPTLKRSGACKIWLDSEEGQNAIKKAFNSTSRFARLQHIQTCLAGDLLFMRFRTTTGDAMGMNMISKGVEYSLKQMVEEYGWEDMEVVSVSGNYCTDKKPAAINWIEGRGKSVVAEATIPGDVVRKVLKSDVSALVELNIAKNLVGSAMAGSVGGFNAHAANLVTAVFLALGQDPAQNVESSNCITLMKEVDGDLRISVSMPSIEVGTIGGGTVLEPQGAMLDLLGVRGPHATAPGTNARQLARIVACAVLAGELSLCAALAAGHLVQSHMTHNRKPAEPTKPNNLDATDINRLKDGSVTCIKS", "assay_type": "binding", "conditions": "probably low level of protein in the preparation"}, "103 protein kinases": {"system": "103 protein kinases", "test": "Affinity purification LC-MS profiling of the panel of yeast protein kinases", "assay_type": "binding, Saccharomyces cerevisiae", "conditions": "of 103 kinases analyzed"}, "[1]": {"system": "Atg1, Psk2 and denatured Ypk1", "test": "In vitro small metabolite-protein binding assay", "design": "species or system Saccharomyces cerevisiae", "conditions": "denatured protein or control proteins; indicates non-specific adsorption"}, "Ypk1": {"target": "T2, Ypk1 (Saccharomyces cerevisiae, UniProt P12688)", "T2 sequence (P12688 1-680)": "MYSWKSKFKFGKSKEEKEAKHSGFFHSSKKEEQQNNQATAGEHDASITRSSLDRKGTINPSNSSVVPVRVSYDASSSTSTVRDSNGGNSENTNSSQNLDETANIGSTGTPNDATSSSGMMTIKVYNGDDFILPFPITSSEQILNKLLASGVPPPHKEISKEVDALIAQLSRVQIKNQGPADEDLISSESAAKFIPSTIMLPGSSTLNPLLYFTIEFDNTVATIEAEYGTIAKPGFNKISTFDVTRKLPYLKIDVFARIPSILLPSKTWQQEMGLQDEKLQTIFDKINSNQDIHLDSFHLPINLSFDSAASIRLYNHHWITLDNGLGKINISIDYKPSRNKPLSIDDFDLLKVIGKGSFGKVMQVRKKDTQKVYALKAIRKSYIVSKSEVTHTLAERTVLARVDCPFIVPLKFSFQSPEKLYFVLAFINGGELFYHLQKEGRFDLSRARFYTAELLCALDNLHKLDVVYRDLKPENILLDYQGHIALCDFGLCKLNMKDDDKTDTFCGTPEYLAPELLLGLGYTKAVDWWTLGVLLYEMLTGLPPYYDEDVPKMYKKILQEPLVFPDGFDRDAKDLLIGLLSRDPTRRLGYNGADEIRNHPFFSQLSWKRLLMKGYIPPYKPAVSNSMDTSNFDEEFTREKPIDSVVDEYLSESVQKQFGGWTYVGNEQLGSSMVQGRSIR", "test": "In vitro kinase activity assay", "assay_type": "biochemical"}},
  "data": [
    {"smiles": "CC(C)[C@@H](C)/C=C/[C@@H](C)[C@H]1CC[C@H]2C3=CC=C4C[C@@H](O)CC[C@]4(C)[C@H]3CC[C@]12C", "note": "[ergosterol]", "values": [
      {"measurement": "detection with Hmg1", "setting": "Hmg1", "result": "not detected"},
      {"measurement": "number of protein kinases associated with the metabolite", "setting": "103 protein kinases", "result": 15},
      {"measurement": "shape of binding curve over increasing free ergosterol", "setting": "[1]", "result": "close to linear"},
      {"measurement": "Ypk1 in vitro kinase activity with increasing concentrations of ergosterol", "setting": "Ypk1; Ypk1 from erg4Δ strain lacking ergosterol", "result": "could not be stimulated"},
      {"measurement": "Ypk1 in vitro kinase activity with increasing concentrations of ergosterol", "setting": "Ypk1; Ypk1 from wild type cells grown in the presence of 0.4 mM ergosterol", "result": "could be stimulated to a similar extent"}
    ]}
  ]
}
